Experimental data as given in US20240287553A1, “Methods of Production of Double Unsaturated Pheromones Using Metabolic Pathways” (ISCA Technologies, Inc., priority 2022, published 2024).
Entries after “also recorded” stand apart in the source; their conditions may differ.

Assays:
[1] = test system: antennae of male P. interpunctella; assay: GC-EAD electrophysiology of yeast-produced pheromone, male Plodia interpunctella antennae; details: extracts of yeast cell pellet and medium
Method: (§1) Insect rearing and tissue collection. The E. cautella individuals were reared on an artificial diet at 25±2.0° C. under an L16:D8 photoperiod as previously described in the field. Freshly emerged female adults were collected daily before the scotophase and considered to be 0 d old. The female pupae were collected separately, and the newly emerged adults were maintained in a vial under the same conditions. Laboratory cultures of S. exigua and P. interpunctella were reared at 23±1° C. under a 17:7 L:D photoperiod and 60% relative humidity and fed on wheat-germs based and beans based artificial diet, respectively. The male and female pupae were kept separately. Adults were fed with a 10% honey solution, and two- to three-day-old unmated males were used for the electrophysiological experiments.
Electrophysiology of ZETA yeast produced pheromone. The antennal electrophysiological activity of the yeast-derived pheromone was tested by gas chromatography with electroantennographic detection (GC-EAD). An Agilent 7890 gas chromatograph equipped with a flame ionization detector (FID), an HP-INNOWax column (30 m×0.25 mm i.d., and 0.25 μm film thickness; J&W Scientific, USA) was used. Antennae of male S. exigua and P. interpunctella with both tips cut-off and associated with the head were mounted on a PRG-2 EAG (10× gain) probe (Syntech, Kirchzarten, Germany) using conductive gel (Blågel, Cefar, Malmö, Sweden). The antennal preparation was put in a flow of charcoal-filtered and humidified air that passed through the column outlet. Hydrogen was used as the carrier gas with a constant flow of 1.8 mL/min, and the GC effluent was directed to the FID and EAD by a 1:1 division. The GC inlet was set at 250° C., the transfer line was set at 255° C., and the detector was set at 280° C. The GC oven was programmed from 80° C. for 1 min, then increased to 210° C. at a rate of 10° C./min and held for 10 min. Data were collected with the software GC-EAD Pro Version 4.1 (Syntech).

[2] = test system: antennae of male S. exigua; assay: GC-EAD electrophysiology of yeast-produced pheromone, male Spodoptera exigua antennae; details: extracts of yeast cell pellet and medium
Method: as §1
Electrophysiology of ZETA yeast produced pheromone. The antennal electrophysiological activity of the yeast-derived pheromone was tested by gas chromatography with electroantennographic detection (GC-EAD). An Agilent 7890 gas chromatograph equipped with a flame ionization detector (FID), an HP-INNOWax column (30 m×0.25 mm i.d., and 0.25 μm film thickness; J&W Scientific, USA) was used. […]

Structure (SMILES)	antennal response (EAD) [1]	antennal response (EAD) [2]
CCCCCCCCCCCCCCOC(C)=O [tetradecanyl acetate]	minor response	–
C/C=C/C/C=C\CCCCCCCCOC(C)=O [ZETA, (Z,E)-9,12-tetradecadienyl acetate]	distinct antennal responses; also recorded: responded strongly; also recorded: typical antennal responses	distinct antennal responses; also recorded: responded strongly; also recorded: typical antennal responses
CCCC/C=C\CCCCCCCCOC(C)=O [Z9-14:OAc, (Z)-9-tetradecenyl acetate]	responded strongly	responded strongly
